According to the NIST ThermoML archive (doi:10.1021/je900193m):

Experiment: xn = mol fraction of the nth substance listed
Conditions: 101 kPa, Liquid, holographic inferometry, x1 = 0

Structure (SMILES)	binary diffusion coefficient (278.15 K) [m2/s]	binary diffusion coefficient (281.15 K) [m2/s]	binary diffusion coefficient (284.15 K) [m2/s]	binary diffusion coefficient (287.15 K) [m2/s]	binary diffusion coefficient (290.15 K) [m2/s]	binary diffusion coefficient (293.15 K) [m2/s]	binary diffusion coefficient (296.15 K) [m2/s]	binary diffusion coefficient (299.15 K) [m2/s]	binary diffusion coefficient (302.15 K) [m2/s]	binary diffusion coefficient (305.15 K) [m2/s]	binary diffusion coefficient (308.15 K) [m2/s]	binary diffusion coefficient (311.15 K) [m2/s]	binary diffusion coefficient (314.15 K) [m2/s]	binary diffusion coefficient (317.15 K) [m2/s]	binary diffusion coefficient (320.15 K) [m2/s]	binary diffusion coefficient (323.15 K) [m2/s]	binary diffusion coefficient (326.15 K) [m2/s]	binary diffusion coefficient (329.15 K) [m2/s]	binary diffusion coefficient (332.15 K) [m2/s]	binary diffusion coefficient (335.15 K) [m2/s]	also measured
CCOC(=O)CCCCC(=O)OCC [diethyl hexanedioate] + CCCCCCC	1.93e-09	1.96e-09	1.99e-09	2.02e-09	2.06e-09	2.1e-09	2.15e-09	2.2e-09	2.25e-09	2.31e-09	2.37e-09	2.43e-09	2.49e-09	2.56e-09	2.62e-09	2.7e-09	2.78e-09	2.85e-09	2.92e-09	3.02e-09	binary diffusion coefficient (338.15 K): 3.11e-09 m2/s
CCOC(=O)OCC [diethyl carbonate] + CCCCCCC	3.93e-09	3.96e-09	3.99e-09	4.02e-09	4.08e-09	4.14e-09	4.19e-09	4.27e-09	4.32e-09	4.4e-09	4.47e-09	4.54e-09	4.62e-09	4.7e-09	4.8e-09	4.88e-09	4.97e-09	5.07e-09	5.15e-09	5.25e-09	binary diffusion coefficient (338.15 K): 5.35e-09 m2/s
COC(=O)OC [dimethyl carbonate] + CCCCCCC	4.93e-09	4.97e-09	5.01e-09	5.07e-09	5.13e-09	5.19e-09	5.25e-09	5.33e-09	5.39e-09	5.48e-09	5.55e-09	5.63e-09	5.71e-09	5.8e-09	5.9e-09	5.99e-09	6.09e-09	6.2e-09	6.29e-09	6.41e-09	binary diffusion coefficient (338.15 K): 6.52e-09 m2/s
